One assay relates to 4T1 breast cancer cells. As to the kind of experiment: Orthotopic 4T1 breast cancer mouse model. Type of assay: in vivo, Balb/C mouse. Conditions: 4T1 in mammary fat gland; belinostat 80 mg/kg i.p. daily from day 8; antibodies 200 μg/mouse i.p. The protocol:
The Belinostat treatment was formulated every one or two day.
The aPD1 treatment solutions were prepared on the days of the treatment (days 8, 12, 16 and 20).
The aCTLA4 treatment solutions were prepared on days 7, 11, 16 and 20 and stored at 4° C.
4T1 breast cancer cells (5*10^5 cells per Balb/C mouse) were in occulated in the mammary fat gland of Balb/C females. The 4T1 (ATCC CRL-2539) cells were bought from ATCC and cultured in RPMI-1640 Medium containing 10% fetal bovine serum. Cells were passaged 5-10 times before in inoculation. Cells were detached with trypsin, washed twice in PBS, centrifuged and resuspended in PBS. Cell viability was checked by a staining with […] and cells were used when viability was higher than 95%. Cells were counted manually and adjusted to 5*10^6 cells per ml. Finally 100 μl were injected.

Assay [1] deals with irradiated Hepa129 tumor cells. The assay can be described thus: IFN-gamma ELISPOT of spleen cells from treated tumor-bearing mice stimulated with irradiated tumor cells. The class given is in vivo, C3H mice. Particulars: 20-h ELISPOT, two-week treatment, versus the same antibody without Beleodaq. The protocol: Treatment allocation were performed as follows for immune characterization study:
A single experiment was carried out for each drug, using n=5 animals per group.
Lymphoid organs (spleen, lymph nodes) were obtained from sacrificed animals, homogenized and cell suspensions were used to measure the following parameters:
ELISPOT: measuring the number of IFN-gamma spot forming cells after co-culture of lymphocytes with irradiated Hepa129 tumor cells.
Tumor-bearing mice were treated during two weeks and sacrificed to obtain their spleen and analyze immune-related parameters. For these experiments mice received two antibody administrations (days 0 and 7) and Beleodaq® (daily) during the two-week treatment period.
Functional assays: Spleen cells were stimulated with irradiated tumor cells to analyze antitumor T cell responses measured as IFN-gamma production using a 20-h ELISPOT assay.

Assay [2] deals with Hepa129 murine hepatocellular carcinoma cells. The assay can be described thus: Antitumor efficacy in subcutaneous Hepa129 hepatocellular carcinoma mouse model. Particulars: s.c. Hepa129 tumors, Beleodaq 90 mg/kg IP daily D7 to D27, antibodies 50 μg/mouse IP D7, D14. The class given is in vivo, C3H mice. The protocol:
As tumor model, Hepa129 murine hepatocellular carcinoma cells implanted subcutaneously in C3H mice were used. Hepa129 cells were maintained in culture up to 3 passages before injection in mice. Cells were sub-cultured three days before the day of injection.
The day of cell injection, Hepa129 cells were harvested and centrifuged at 1800 rpm for 5 min, and resuspended in PBS. Cells were counted in 0.04% Trypan Blue for viability quantification. Cells were resuspended in the adequate volume of PBS in order to have 10^6 cells in 100 μL. […] were subcutaneously injected into the right flank of mice.
When subcutaneous Hepa129 tumors reached a mean tumor diameter of about 5 mm (day 7), mice were allocated to treatment groups and identified individually by ear tags. Beleodaq® was administered IP daily at days 7 to 27 at 90 mg/kg. Antibodies Isotype control (2A3) and anti-CTLA-4 (9D9) (from BioXcell) were administered IP at days 7 and 14.
Treatment allocation were performed as follows for antitumor efficacy study:
Animals were monitored and sacrificed when tumor diameter reached 17 mm. Each experiment was carried out twice with n=8 animals per group.

The source of these data is US20200121699A1, “COMBINATION THERAPIES COMPRISING IMMUNO-ONCOLOGY AGENTS AND BELINOSTAT” (ONXEO, priority 2016, published 2020).

For the molecule `O=C(/C=C/c1cccc(S(=O)(=O)Nc2ccccc2)c1)NO` [Beleodaq®, (2E)-N-hydroxy-3-[3-(phenylsulfamoyl)phenyl]prop-2-enamide], in the assay with 4T1 breast cancer cells, the “apparent external tumor size” value was “reduced” and the mortality result is given as “reduced”. The “antitumor T cell responses measured as IFN-gamma production” value in assay [1] is reported as “no significant differences”. Besides, the tumor growth entry in assay [2] is given as “did not modify”. Also, in assay [2] (sacrificed when tumor diameter reached 17 mm), the animal survival result is listed as “did not modify”.
